Source: patent US20260306527A1, “PRMT INHIBITOR COMPOUNDS AND THE USES THEREOF” (Purdue Research Foundation, priority 2023, published 2026)

These compounds were tested against PRMT6 (Homo sapiens, UniProt Q96LA8) (assay: radioactive assay (Reaction Biology Corp.), inhibition of PRMT6). Conditions: not given.
Format: biochemical
Protocol: (§1) Next, the inhibition activity of the library was investigated for five PRMT members from type I PRMTs.
(§2) The PRMT 4, 6 and 8 methylation assays were performed by Reaction Biology corp.

Sequence of PRMT6 (Q96LA8 whole entry, species assumed): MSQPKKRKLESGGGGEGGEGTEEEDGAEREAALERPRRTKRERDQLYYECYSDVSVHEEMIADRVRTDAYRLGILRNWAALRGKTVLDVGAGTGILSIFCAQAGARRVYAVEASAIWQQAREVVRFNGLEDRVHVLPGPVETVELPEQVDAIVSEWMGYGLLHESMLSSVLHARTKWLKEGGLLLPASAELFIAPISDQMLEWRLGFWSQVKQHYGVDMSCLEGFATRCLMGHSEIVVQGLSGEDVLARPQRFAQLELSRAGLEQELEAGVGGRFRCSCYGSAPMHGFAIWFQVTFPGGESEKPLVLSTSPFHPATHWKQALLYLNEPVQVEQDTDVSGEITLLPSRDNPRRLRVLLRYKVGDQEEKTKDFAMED

Structure (SMILES)	inhibition at 10 µM [%]
N=C(NCCSC[C@H]1O[C@@H](n2cnc3c(N)ncnc32)[C@H](O)[C@@H]1O)Nc1cccc(-c2ccoc2)c1 [Compound 6c]	76
N=C(NCCSC[C@H]1O[C@@H](n2cnc3c(N)ncnc32)[C@H](O)[C@@H]1O)Nc1cccc(-c2cccc(F)c2)c1 [Compound 6d]	67
N=C(NCCCSC[C@H]1O[C@@H](n2cnc3c(N)ncnc32)[C@H](O)[C@@H]1O)Nc1cccc(-c2ccc(O)cc2)c1 [Compound 6e]	99
N=C(NCCCSC[C@H]1O[C@@H](n2cnc3c(N)ncnc32)[C@H](O)[C@@H]1O)Nc1cccc(-c2ccc(Cl)cc2)c1 [Compound 6f]	97
N=C(NCCCSC[C@H]1O[C@@H](n2cnc3c(N)ncnc32)[C@H](O)[C@@H]1O)Nc1cccc(-c2ccc3c(c2)OCCO3)c1 [Compound 6g]	98

What follows are compounds tested against PRMT3 (Homo sapiens, UniProt O60678) (assay: SAHH-coupled fluorescence assay, inhibition of PRMT3). Conditions: not given.
Sequence of PRMT3 (Homo sapiens, UniProt O60678) (O60678 211-531): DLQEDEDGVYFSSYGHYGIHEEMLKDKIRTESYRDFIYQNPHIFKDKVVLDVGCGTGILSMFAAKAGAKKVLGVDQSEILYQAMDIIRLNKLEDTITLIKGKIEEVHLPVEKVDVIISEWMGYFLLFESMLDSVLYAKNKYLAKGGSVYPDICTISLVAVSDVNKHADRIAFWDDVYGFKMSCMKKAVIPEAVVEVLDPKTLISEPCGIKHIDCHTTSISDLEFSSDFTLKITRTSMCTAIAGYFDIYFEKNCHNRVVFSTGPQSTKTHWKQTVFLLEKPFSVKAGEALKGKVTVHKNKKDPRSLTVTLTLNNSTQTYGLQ
Format: biochemical
Parameters: PRMT3 (residues 211-531) was cloned into the pET28a-MHL expression vector; tag of the pET28a-MHL vector (not described); made in house; host or cells: Escherichia coli BL21(DE3)
Procedure, shortened: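 Coupled SAHH/ThioGlo4 fluorescence read-out (ex 380 nm, em 505 nm) of PRMT3 (0.25 μM) methylation with 30 μM AdoMet and 5 μM SAHH. Buffer was 20 mM Tris pH 7.5 with 0.01% Triton X-100. Run in duplicate.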

Structure (SMILES)	inhibition at 10 µM [%]
N=C(NCCSC[C@H]1O[C@@H](n2cnc3c(N)ncnc32)[C@H](O)[C@@H]1O)Nc1cccc(-c2ccoc2)c1 [Compound 6c]	48
N=C(NCCSC[C@H]1O[C@@H](n2cnc3c(N)ncnc32)[C@H](O)[C@@H]1O)Nc1cccc(-c2cccc(F)c2)c1 [Compound 6d]	26
N=C(NCCCSC[C@H]1O[C@@H](n2cnc3c(N)ncnc32)[C@H](O)[C@@H]1O)Nc1cccc(-c2ccc(O)cc2)c1 [Compound 6e]	47
N=C(NCCCSC[C@H]1O[C@@H](n2cnc3c(N)ncnc32)[C@H](O)[C@@H]1O)Nc1cccc(-c2ccc(Cl)cc2)c1 [Compound 6f]	76
N=C(NCCCSC[C@H]1O[C@@H](n2cnc3c(N)ncnc32)[C@H](O)[C@@H]1O)Nc1cccc(-c2ccc3c(c2)OCCO3)c1 [Compound 6g]	64

These compounds were tested against T1, PRMT1 (Homo sapiens, UniProt Q99873) (assay: SAHH-coupled fluorescence assay, inhibition of PRMT1). Conditions: not given.
T1 construct: made in house
T1 sequence (Q99873 whole entry, species assumed): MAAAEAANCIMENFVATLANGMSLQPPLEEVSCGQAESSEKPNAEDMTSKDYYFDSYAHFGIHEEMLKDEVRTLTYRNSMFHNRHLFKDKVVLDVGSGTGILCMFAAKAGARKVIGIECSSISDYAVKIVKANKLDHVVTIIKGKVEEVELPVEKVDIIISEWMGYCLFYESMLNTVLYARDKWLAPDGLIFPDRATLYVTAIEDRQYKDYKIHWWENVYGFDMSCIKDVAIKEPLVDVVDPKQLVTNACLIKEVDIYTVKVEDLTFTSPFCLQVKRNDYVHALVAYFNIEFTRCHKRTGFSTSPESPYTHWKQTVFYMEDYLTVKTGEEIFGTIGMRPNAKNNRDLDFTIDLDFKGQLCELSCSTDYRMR
Format: biochemical
Procedure, shortened: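 PRMT1 (0.1 μM) was run with 10 μM AdoMet, 5 μM SAHH and 10 μM ThioGlo4 in 2.5 mM HEPES pH 7.0, 25 mM NaCl, 25 μM EDTA, 50 μM TCEP and 0.01% Triton X-100. Fluorescence (ex 400/em 465 nm) was monitored for 15 min. Assays were done in duplicate.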

Structure (SMILES)	inhibition at 10 µM [%]
N=C(NCCSC[C@H]1O[C@@H](n2cnc3c(N)ncnc32)[C@H](O)[C@@H]1O)Nc1cccc(-c2ccoc2)c1 [Compound 6c]	84
N=C(NCCSC[C@H]1O[C@@H](n2cnc3c(N)ncnc32)[C@H](O)[C@@H]1O)Nc1cccc(-c2cccc(F)c2)c1 [Compound 6d]	68
N=C(NCCCSC[C@H]1O[C@@H](n2cnc3c(N)ncnc32)[C@H](O)[C@@H]1O)Nc1cccc(-c2ccc(O)cc2)c1 [Compound 6e]	95
N=C(NCCCSC[C@H]1O[C@@H](n2cnc3c(N)ncnc32)[C@H](O)[C@@H]1O)Nc1cccc(-c2ccc(Cl)cc2)c1 [Compound 6f]	92
N=C(NCCCSC[C@H]1O[C@@H](n2cnc3c(N)ncnc32)[C@H](O)[C@@H]1O)Nc1cccc(-c2ccc3c(c2)OCCO3)c1 [Compound 6g]	87

Same assay, conditions: read-out: IC50[μM] | PRMT1

Structure (SMILES)	IC50 [µM]
N=C(NCCSC[C@H]1O[C@@H](n2cnc3c(N)ncnc32)[C@H](O)[C@@H]1O)Nc1cccc(-c2ccoc2)c1 [Compound 6c]	1.5 ± 0.12
N=C(NCCSC[C@H]1O[C@@H](n2cnc3c(N)ncnc32)[C@H](O)[C@@H]1O)Nc1cccc(-c2cccc(F)c2)c1 [Compound 6d]	4.9 ± 0.11
N=C(NCCCSC[C@H]1O[C@@H](n2cnc3c(N)ncnc32)[C@H](O)[C@@H]1O)Nc1cccc(-c2ccc(O)cc2)c1 [Compound 6e]	0.23 ± 0.013
N=C(NCCCSC[C@H]1O[C@@H](n2cnc3c(N)ncnc32)[C@H](O)[C@@H]1O)Nc1cccc(-c2ccc(Cl)cc2)c1 [Compound 6f]	0.2 ± 0.031
N=C(NCCCSC[C@H]1O[C@@H](n2cnc3c(N)ncnc32)[C@H](O)[C@@H]1O)Nc1cccc(-c2ccc3c(c2)OCCO3)c1 [Compound 6g]	0.21 ± 0.023

The compounds below were run against T2, PRMT4 (Homo sapiens, UniProt Q86X55) (assay: radioactive assay (Reaction Biology Corp.), inhibition of PRMT4). Conditions: not given.
T2 sequence (Q86X55 1-608): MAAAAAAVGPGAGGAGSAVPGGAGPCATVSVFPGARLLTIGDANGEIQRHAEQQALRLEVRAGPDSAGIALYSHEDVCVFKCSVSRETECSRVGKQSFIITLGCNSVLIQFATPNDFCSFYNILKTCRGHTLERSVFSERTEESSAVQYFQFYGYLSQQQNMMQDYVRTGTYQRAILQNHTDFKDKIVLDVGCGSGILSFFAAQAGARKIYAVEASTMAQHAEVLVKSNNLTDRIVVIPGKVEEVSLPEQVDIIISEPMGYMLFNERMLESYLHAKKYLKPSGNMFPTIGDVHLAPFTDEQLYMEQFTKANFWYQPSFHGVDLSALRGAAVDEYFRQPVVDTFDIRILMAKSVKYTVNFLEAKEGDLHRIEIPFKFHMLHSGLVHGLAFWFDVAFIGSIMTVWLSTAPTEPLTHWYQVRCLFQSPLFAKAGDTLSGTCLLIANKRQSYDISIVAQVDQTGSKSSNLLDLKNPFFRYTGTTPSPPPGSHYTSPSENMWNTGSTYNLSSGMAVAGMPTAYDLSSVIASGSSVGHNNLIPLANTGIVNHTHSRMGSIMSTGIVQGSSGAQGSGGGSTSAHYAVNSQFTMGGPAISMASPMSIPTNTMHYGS
Format: biochemical
Protocol: as §1, §2

Structure (SMILES)	inhibition at 10 µM [%]
N=C(NCCSC[C@H]1O[C@@H](n2cnc3c(N)ncnc32)[C@H](O)[C@@H]1O)Nc1cccc(-c2ccoc2)c1 [Compound 6c]	100
N=C(NCCSC[C@H]1O[C@@H](n2cnc3c(N)ncnc32)[C@H](O)[C@@H]1O)Nc1cccc(-c2cccc(F)c2)c1 [Compound 6d]	100
N=C(NCCCSC[C@H]1O[C@@H](n2cnc3c(N)ncnc32)[C@H](O)[C@@H]1O)Nc1cccc(-c2ccc(O)cc2)c1 [Compound 6e]	100
N=C(NCCCSC[C@H]1O[C@@H](n2cnc3c(N)ncnc32)[C@H](O)[C@@H]1O)Nc1cccc(-c2ccc(Cl)cc2)c1 [Compound 6f]	100
N=C(NCCCSC[C@H]1O[C@@H](n2cnc3c(N)ncnc32)[C@H](O)[C@@H]1O)Nc1cccc(-c2ccc3c(c2)OCCO3)c1 [Compound 6g]	100

Each compound was assayed against PRMT8 (Homo sapiens, UniProt Q9NR22) (assay: radioactive assay (Reaction Biology Corp.), inhibition of PRMT8). Conditions: not given.
Sequence of PRMT8 (Q9NR22 whole entry, species assumed): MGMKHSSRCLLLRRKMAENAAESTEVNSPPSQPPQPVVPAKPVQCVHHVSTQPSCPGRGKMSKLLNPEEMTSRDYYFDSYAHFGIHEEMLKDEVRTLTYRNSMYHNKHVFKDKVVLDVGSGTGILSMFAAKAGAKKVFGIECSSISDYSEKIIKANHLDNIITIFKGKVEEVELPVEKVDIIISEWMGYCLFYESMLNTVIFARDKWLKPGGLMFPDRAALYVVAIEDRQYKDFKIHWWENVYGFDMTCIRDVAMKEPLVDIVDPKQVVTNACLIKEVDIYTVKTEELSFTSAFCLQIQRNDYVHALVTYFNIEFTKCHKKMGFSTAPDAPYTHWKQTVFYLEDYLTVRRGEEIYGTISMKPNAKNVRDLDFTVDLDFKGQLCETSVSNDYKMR
Format: biochemical
Protocol: as §1, §2

Structure (SMILES)	inhibition at 10 µM [%]
N=C(NCCSC[C@H]1O[C@@H](n2cnc3c(N)ncnc32)[C@H](O)[C@@H]1O)Nc1cccc(-c2ccoc2)c1 [Compound 6c]	82
N=C(NCCSC[C@H]1O[C@@H](n2cnc3c(N)ncnc32)[C@H](O)[C@@H]1O)Nc1cccc(-c2cccc(F)c2)c1 [Compound 6d]	81
N=C(NCCCSC[C@H]1O[C@@H](n2cnc3c(N)ncnc32)[C@H](O)[C@@H]1O)Nc1cccc(-c2ccc(O)cc2)c1 [Compound 6e]	98
N=C(NCCCSC[C@H]1O[C@@H](n2cnc3c(N)ncnc32)[C@H](O)[C@@H]1O)Nc1cccc(-c2ccc(Cl)cc2)c1 [Compound 6f]	100
N=C(NCCCSC[C@H]1O[C@@H](n2cnc3c(N)ncnc32)[C@H](O)[C@@H]1O)Nc1cccc(-c2ccc3c(c2)OCCO3)c1 [Compound 6g]	99

Each compound was assayed on PRMT3 (assay: SAHH-coupled fluorescence assay, inhibition of PRMT3). Conditions: read-out: IC50[μM] | PRMT3.
Format: biochemical
Protocol: A fluorescence-based SAHH-coupled assay was applied to study the inhibition activity of all synthesized compounds on PRMT 1 and 3.
(§3) The PRMT3 methylation assay was performed under the following conditions in a final well volume of 100 μL: 20 mM Tris (pH=7.5), 0.01% Triton X-100, 5 μM SAHH, 0.25 μM PRMT3, 30 μM AdoMet, and 15 μM ThioGlo4. […] Fluorescence was monitored on a BMG CLARIOstar microplate reader with excitation 380 nm and emission 505 nm. Data were processed by using GraphPad Prism software 8.0. All experiments were performed in duplicate.
as §1
as §3, with “8.0.” for “8.0. All experiments were performed in duplicate.”

Structure (SMILES)	IC50 [µM]
N=C(NCCSC[C@H]1O[C@@H](n2cnc3c(N)ncnc32)[C@H](O)[C@@H]1O)Nc1cccc(-c2ccoc2)c1 [Compound 6c]	8.3 ± 0.34
N=C(NCCSC[C@H]1O[C@@H](n2cnc3c(N)ncnc32)[C@H](O)[C@@H]1O)Nc1cccc(-c2cccc(F)c2)c1 [Compound 6d]	18 ± 2.1
N=C(NCCCSC[C@H]1O[C@@H](n2cnc3c(N)ncnc32)[C@H](O)[C@@H]1O)Nc1cccc(-c2ccc(O)cc2)c1 [Compound 6e]	8.6 ± 0.58
N=C(NCCCSC[C@H]1O[C@@H](n2cnc3c(N)ncnc32)[C@H](O)[C@@H]1O)Nc1cccc(-c2ccc(Cl)cc2)c1 [Compound 6f]	1.8 ± 0.23
N=C(NCCCSC[C@H]1O[C@@H](n2cnc3c(N)ncnc32)[C@H](O)[C@@H]1O)Nc1cccc(-c2ccc3c(c2)OCCO3)c1 [Compound 6g]	3.2 ± 0.47
